Legend:
[1] = target: SREBP-2 (Homo sapiens (Human), UniProt Q12772); test: In vitro assay SREBP-2: PathHunter U2OS SREBP-2 Nuclear Translocation Cell Line, U18666A-stimulated; assay type: cell-based; conditions: PathHunter U2OS SREBP-2 nuclear translocation cells, U18666A 10 μM, overnight (16 hours)
[2] = target: LXRβ (Homo sapiens (Human), UniProt P55055); test: In vitro assay LXRβ: PathHunter NHR CHO cells, LXRβ / Steroid Receptor Co-activator Peptide enzyme fragment complementation; assay type: cell-based; conditions: PathHunter NHR CHO cells, full-length human LXRβ and SRCP, chemiluminescent signal; read-out: LXRβ PPI
Chain of LXRβ (P55055 whole entry, the tested form may be a part): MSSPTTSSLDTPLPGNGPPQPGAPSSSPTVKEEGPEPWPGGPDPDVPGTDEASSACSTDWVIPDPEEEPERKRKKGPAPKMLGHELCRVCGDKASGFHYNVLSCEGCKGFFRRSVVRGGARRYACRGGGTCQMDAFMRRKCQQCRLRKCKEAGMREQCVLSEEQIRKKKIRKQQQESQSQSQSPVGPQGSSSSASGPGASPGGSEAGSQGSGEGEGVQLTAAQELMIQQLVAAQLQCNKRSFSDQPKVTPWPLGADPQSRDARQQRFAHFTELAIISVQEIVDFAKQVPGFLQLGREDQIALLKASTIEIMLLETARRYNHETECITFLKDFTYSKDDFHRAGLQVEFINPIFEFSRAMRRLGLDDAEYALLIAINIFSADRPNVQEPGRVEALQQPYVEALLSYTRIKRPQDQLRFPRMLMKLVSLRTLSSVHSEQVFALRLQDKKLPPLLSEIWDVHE
In short: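 Enzyme fragment complementation read-out: CHO cells stably expressing ProLink-tagged full-length human LXRβ plus nuclear enzyme acceptor–SRCP fusion, seeded and held overnight at 37° C. Medium with charcoal-dextran filtered serum; final vehicle 1%. Chemiluminescence measured after signal generation.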

For `C[C@H](CCC(=O)N1CCC(S(=O)(=O)N(C)C)CC1)[C@H]1CC[C@H]2[C@@H]3CC=C4C[C@@H](O)CC[C@]4(C)[C@H]3CC[C@]12C` [Example 290, 1-((R)-4-((3S,8S,9S,10R,13R,14S,17R)-3-hydroxy-10,13-dimethyl-2,3,4,7,8,9,10,11,12,13,14,15,16,17-tetradecahydro-1H-cyclopenta[a]phenanthren-17-yl)pentanoyl)-N,N-dimethylpiperidine-4-sulfonamide], the IC50 [1] was < 250 nM and the EC50 [2] was > 10000 nM.

For `COC([C@@H]1CCN(C(=O)CC[C@@H](C)[C@H]2CC[C@H]3[C@@H]4CC=C5C[C@@H](O)CC[C@]5(C)[C@H]4CC[C@]23C)C1)(C(F)(F)F)C(F)(F)F` [Example 331, (4R)-4-[(1R,3aS,3bS,7S,9aR,9bS,11aR)-7-hydroxy-9a,11a-dimethyl-1H,2H,3H,3aH,3bH,4H,6H,7H,8H,9H,9aH,9bH,10H,11H,11aH-cyclopenta[a]phenanthren-1-yl]-1-[(3R)-3-(1,1,1,3,3,3-hexafluoro-2-methoxypropan-2-yl)pyrrolidin-1-yl]pentan-1-one], the IC50 [1] was < 250 nM and the EC50 [2] was > 10000 nM.

With `C[C@H](CCC(=O)N1CCC(O)(C2CC2)CC1)[C@H]1CC[C@H]2[C@@H]3CC=C4C[C@@H](O)CC[C@]4(C)[C@H]3CC[C@]12C` [Example 193, (R)-1-(4-cyclopropyl-4-hydroxypiperidin-1-yl)-4-((3S,8S,9S,10R,13R,14S,17R)-3-hydroxy-10,13-dimethyl-2,3,4,7,8,9,10,11,12,13,14,15,16,17-tetradecahydro-1H-cyclopenta[a]phenanthren-17-yl)pentan-1-one] the IC50 [1] was < 250 nM and the EC50 [2] was < 250 nM.

In the case of `C[C@H](CCC(=O)N1CCC[C@@H](c2ccccc2)C1)[C@H]1CC[C@H]2[C@@H]3CC=C4C[C@@H](O)CC[C@]4(C)[C@H]3CC[C@]12C` [Example 76, (R)-4-((3S,8S,9S,10R,13R,14S,17R)-3-hydroxy-10,13-dimethyl-2,3,4,7,8,9,10,11,12,13,14,15,16,17-tetradecahydro-1H-cyclopenta[a]phenanthren-17-yl)-1-((S)-3-phenylpiperidin-1-yl)pentan-1-one], the IC50 [1] is reported as < 250 nM and the EC50 [2] is reported as 1000 to 10000 nM.

With `CON(C[C@H](C)O)C(=O)CC[C@@H](C)[C@H]1CC[C@H]2[C@@H]3CC=C4C[C@@H](O)CC[C@]4(C)[C@H]3CC[C@]12C` [Example 69, (R)-4-((3S,8S,9S,10R,13R,14S,17R)-3-hydroxy-10,13-dimethyl-2,3,4,7,8,9,10,11,12,13,14,15,16,17-tetradecahydro-1H-cyclopenta[a]phenanthren-17-yl)-N—((S)-2-hydroxypropyl)-N-methoxypentanamide] the IC50 [1] was < 250 nM and the EC50 [2] was 250 to 1000 nM.

`C[C@H](CCC(=O)N1CCNS(=O)(=O)CC1)[C@H]1CC[C@H]2[C@@H]3CC=C4C[C@@H](O)CC[C@]4(C)[C@H]3CC[C@]12C` [Example 354, 5-[(4R)-4-[(1R,3aS,3bS,7S,9aR,9bS,11aR)-7-hydroxy-9a,11a-dimethyl-1H,2H,3H,3aH,3bH,4H,6H,7H,8H,9H,9aH,9bH,10H,11H,11aH-cyclopenta[a]phenanthren-1-yl]pentanoyl]-1λ^6,2,5-thiadiazepane-1,1-dione] was tested, and the IC50 [1] was < 250 nM and the EC50 [2] was > 10000 nM.

In the case of `C[C@@H]1CCN(C(=O)CC[C@@H](C)[C@H]2CC[C@H]3[C@@H]4CC=C5C[C@@H](O)CC[C@]5(C)[C@H]4CC[C@]23C)C1` [Example 115, (R)-4-((3S,8S,9S,10R,13R,14S,17R)-3-hydroxy-10,13-dimethyl-2,3,4,7,8,9,10,11,12,13,14,15,16,17-tetradecahydro-1H-cyclopenta[a]phenanthren-17-yl)-1-((R)-3-methylpyrrolidin-1-yl)pentan-1-one], the IC50 [1] is reported as < 250 nM and the EC50 [2] is reported as 250 to 1000 nM.

In the case of `CC(=O)N(C)[C@@H]1CCN(C(=O)CC[C@@H](C)[C@H]2CC[C@H]3[C@@H]4CC=C5C[C@@H](O)CC[C@]5(C)[C@H]4CC[C@]23C)C1` [Example 323, N—((R)-1-((R)-4-((3S,8S,9S,10R,13R,14S,17R)-3-hydroxy-10,13-dimethyl-2,3,4,7,8,9,10,11,12,13,14,15,16,17-tetradecahydro-1H-cyclopenta[a]phenanthren-17-yl)pentanoyl)pyrrolidin-3-yl)-N-methylacetamide], the IC50 [1] is reported as 250 to 1000 nM and the EC50 [2] is reported as > 10000 nM.

For `C[C@H](CCC(=O)N1CCC(O)(c2ccccc2)CC1)[C@H]1CC[C@H]2[C@@H]3CC=C4C[C@@H](O)CC[C@]4(C)[C@H]3CC[C@]12C` [Example 91, (R)-4-((3S,8S,9S,10R,13R,14S,17R)-3-hydroxy-10,13-dimethyl-2,3,4,7,8,9,10,11,12,13,14,15,16,17-tetradecahydro-1H-cyclopenta[a]phenanthren-17-yl)-1-(4-hydroxy-4-phenylpiperidin-1-yl) pentan-1-one], the IC50 [1] was < 250 nM and the EC50 [2] was > 10000 nM.

With `C[C@H](CCc1nccs1)[C@H]1CC[C@H]2[C@@H]3CC=C4C[C@@H](O)CC[C@]4(C)[C@H]3CC[C@]12C` [Example 172, (1R,3aS,3bS,7S,9aR,9bS,11aR)-9a,11a-dimethyl-1-[(2R)-4-(1,3-thiazol-2-yl)butan-2-yl]-1H,2H,3H,3aH,3bH,4H,6H,7H,8H,9H,9aH,9bH,10H,11H,11aH-cyclopenta[a]phenanthren-7-ol] the IC50 [1] was 250 to 1000 nM and the EC50 [2] was 1000 to 10000 nM.

For `Cc1ncsc1N1CCN(C(=O)CC[C@@H](C)[C@H]2CC[C@H]3[C@@H]4CC=C5C[C@@H](O)CC[C@]5(C)[C@H]4CC[C@]23C)CC1` [Example 607, (R)-4-((3S,8S,9S,10R,13R,14S,17R)-3-hydroxy-10,13-dimethyl-2,3,4,7,8,9,10,11,12,13,14,15,16,17-tetradecahydro-1H-cyclopenta[a]phenanthren-17-yl)-1-(4-(4-methylthiazol-5-yl)piperazin-1-yl)pentan-1-one], the IC50 [1] was < 250 nM and the EC50 [2] was > 10000 nM.

In the case of `C[C@H](CCC(=O)N1CCC(O)(CC(F)F)CC1)[C@H]1CC[C@H]2[C@@H]3CC=C4C[C@@H](O)CC[C@]4(C)[C@H]3CC[C@]12C` [Example 151, (4R)-4-[(1R,3aS,3bS,7S,9aR,9bS,11aR)-7-hydroxy-9a,11a-dimethyl-1H,2H,3H,3aH,3bH,4H,6H,7H,8H,9H,9aH,9bH,10H,11H,11aH-cyclopenta[a]phenanthren-1-yl]-1-[4-(2,2-difluoroethyl)-4-hydroxypiperidin-1-yl]pentan-1-one], the IC50 [1] is reported as < 250 nM and the EC50 [2] is reported as < 250 nM.

For `COc1cccnc1C1CCN(C(=O)CC[C@@H](C)[C@H]2CC[C@H]3[C@@H]4CC=C5C[C@@H](O)CC[C@]5(C)[C@H]4CC[C@]23C)CC1` [Example 622, (R)-4-((3S,8S,9S,10R,13R,14S,17R)-3-hydroxy-10,13-dimethyl-2,3,4,7,8,9,10,11,12,13,14,15,16,17-tetradecahydro-1H-cyclopenta[a]phenanthren-17-yl)-1-(4-(3-methoxypyridin-2-yl)piperidin-1-yl)pentan-1-one], the IC50 [1] was < 250 nM and the EC50 [2] was > 10000 nM.

With `C[C@H](OC(=O)C(=O)N1CCCC1)[C@H]1CC[C@H]2[C@@H]3CC=C4C[C@@H](O)CC[C@]4(C)[C@H]3CC[C@]12C` [Example 198, (S)-1-((3S,8S,9S,10R,13S,14S,17S)-3-hydroxy-10,13-dimethyl-2,3,4,7,8,9,10,11,12,13,14,15,16,17-tetradecahydro-1H-cyclopenta[a]phenanthren-17-yl)ethyl 2-oxo-2-(pyrrolidin-1-yl)acetate] the IC50 [1] was < 250 nM and the EC50 [2] was 1000 to 10000 nM.
